For the assay, the target named is T1, Bile acid receptor (Homo sapiens) (UniProt Q96RI1).
T1 sequence (whole entry): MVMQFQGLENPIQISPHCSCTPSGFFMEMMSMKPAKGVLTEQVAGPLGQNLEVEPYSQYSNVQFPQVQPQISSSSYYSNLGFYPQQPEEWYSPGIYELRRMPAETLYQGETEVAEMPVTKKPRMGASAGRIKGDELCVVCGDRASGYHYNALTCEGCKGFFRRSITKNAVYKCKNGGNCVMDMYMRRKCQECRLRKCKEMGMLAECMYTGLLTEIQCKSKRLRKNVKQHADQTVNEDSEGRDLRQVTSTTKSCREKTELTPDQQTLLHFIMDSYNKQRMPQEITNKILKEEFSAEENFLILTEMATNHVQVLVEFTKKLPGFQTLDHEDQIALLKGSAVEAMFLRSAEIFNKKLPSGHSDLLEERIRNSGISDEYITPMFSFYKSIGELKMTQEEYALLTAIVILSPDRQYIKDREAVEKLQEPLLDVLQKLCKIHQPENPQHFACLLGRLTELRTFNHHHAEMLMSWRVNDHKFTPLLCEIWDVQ

`CC(C)c1onc(-c2c(Cl)cccc2Cl)c1COc1ccc(/C=C/c2cccc(C(=O)O)c2)c(Cl)c1` came in with an RE of 1.4.

The values are drawn from ChEMBL document CHEMBL1133440, “Identification of a chemical tool for the orphan nuclear receptor FXR” (J Med Chem, 2000).
